# Data from PubChem BioAssay (NCI).
#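 Method: 48-hour compound exposure of cells in 96-well plates, five concentrations, linear interpolation of endpoints. GI50: concentration for 50% inhibition of growth. TGI is the concentration that stops growth completely.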 *1 amine or outer side, *2 acyl side, *3 side chain or, on linkers, in order; H or OH if unused. Where a SMILES comes first, the peptide text is derived from it. [ ]: non-standard residue; d: D form. The star is where a group is joined. X11 = C/C=C/CC(C)C(O)[C@H](N[*:1])C(=O)[*:2]; Leu(ol) = CC(C)C[C@H](N)CO; Iva = CC[C@](C)(N)C(=O)O; Octanoyl = CCCCCCCC(=O)*; Aib = CC(C)(N)C(=O)O
# Tests used:
# Test in all cases: inhibition of tumour cell growth, NCI panel, 48 h
# [1] = system: HCC-2998 colon
# [2] = system: IGROV1 ovarian
# [3] = system: TK-10 renal
# [4] = system: SNB-19 CNS
# [5] = system: HL-60(TB) leukemia
# [6] = system: A498 renal
# [7] = system: DU-145 prostate
# [8] = system: NCI/ADR-RES ovarian
# [9] = system: HT29 colon
# [10] = system: OVCAR-4 ovarian
# [11] = system: SK-MEL-28 melanoma
# [12] = system: OVCAR-3 ovarian
# [13] = system: MCF7 breast
# [14] = system: UO-31 renal
# [15] = system: NCI-H226 lung
# [16] = system: 786-0 renal
# [17] = system: HCT-15 colon
# [18] = system: KM12 colon
# [19] = system: MDA-MB-435
# [20] = system: A549 NSCLC
# [21] = system: MOLT-4 leukemia
# [22] = system: SF-295 CNS
# [23] = system: HOP-62 NSCLC
# [24] = system: MDA-MB-231 breast
# [25] = system: NCI-H460 lung
# [26] = system: UACC-257 melanoma
# [27] = system: COLO 205 colon
# [28] = system: NCI-H522 lung
# [29] = system: MALME-3M melanoma
# [30] = system: SR leukemia
# [31] = system: HS 578T breast
# [32] = system: SN12C renal
# [33] = system: SF-539 CNS
# [34] = system: T-47D breast
# [35] = system: CCRF-CEM leukemia
# [36] = system: M14 melanoma
# [37] = system: OVCAR-8 ovarian
# [38] = system: CAKI-1 renal
# [39] = system: K-562 leukemia
# [40] = system: UACC-62 melanoma
# [41] = system: SNB-75 CNS
# [42] = system: ACHN renal
# [43] = system: SK-MEL-2 melanoma
# [44] = system: LOX IMVI melanoma
# [45] = system: EKVX NSCLC
# [46] = system: OVCAR-5 ovarian
# [47] = system: SK-OV-3 ovarian
# [48] = system: BT-549 breast
# [49] = system: RXF 393 renal
# [50] = system: PC-3 prostate
# [51] = system: U251 CNS
# [52] = system: SW-620 colon
# [53] = system: HCT-116 colon
# [54] = system: SK-MEL-5 melanoma
# [55] = system: SF-268 CNS
# [56] = system: RPMI-8226 leukemia
smiles,measurement,setting,value
C/C=C/CC(C)C(O)[C@H](NC(=O)[C@@H]1CCCN1C(=O)C(C)(C)NC(=O)CCCCCCC)C(=O)N[C@@](C)(CC)C(=O)N[C@@H](CCC(N)=O)C(=O)N[C@H](CCC(N)=O)C(=O)NC(C)(C)C(=O)NC(C)(C)C(=O)N[C@@H](CCC(N)=O)C(=O)N[C@H](CC(C)C)C(=O)N[C@H](CO)CC(C)C (stereo partly drawn) (Octanoyl-[Aib]P[X11][Iva]Q[dQ][Aib][Aib]Q[dL][Leu(ol)]),GI50,[1],3 µM
same,TGI,[1],10.1 µM
same,GI50,[2],6.83 µM
same,TGI,[2],20.3 µM
same,GI50,[3],4.54 µM
same,TGI,[3],15 µM
same,GI50,[4],3.95 µM
same,TGI,[4],14.6 µM
same,GI50,[5],1.74 µM
same,TGI,[5],3.86 µM
same,GI50,[6],2.74 µM
same,TGI,[6],7.25 µM
same,GI50,[7],2.15 µM
same,TGI,[7],4.61 µM
same,GI50,[8],8.82 µM
same,TGI,[8],22.4 µM
same,GI50,[9],7.35 µM
same,TGI,[9],20.6 µM
same,GI50,[10],10.4 µM
same,TGI,[10],24.1 µM
same,GI50,[11],1.81 µM
same,TGI,[11],3.38 µM
same,GI50,[12],10.6 µM
same,TGI,[12],24 µM
same,GI50,[13],2.95 µM
same,TGI,[13],10.7 µM
same,GI50,[14],3.1 µM
same,TGI,[14],14.9 µM
same,GI50,[15],2.25 µM
same,TGI,[15],5.92 µM
same,GI50,[16],2.71 µM
same,TGI,[16],7.6 µM
same,GI50,[17],5.2 µM
same,TGI,[17],18.2 µM
same,GI50,[18],2.16 µM
same,TGI,[18],4.77 µM
same,GI50,[19],1.93 µM
same,TGI,[19],3.83 µM
same,GI50,[20],5.12 µM
same,TGI,[20],21 µM
same,GI50,[21],2.43 µM
same,TGI,[21],5.62 µM
same,GI50,[22],2.27 µM
same,TGI,[22],5.61 µM
same,GI50,[23],3.16 µM
same,TGI,[23],11.2 µM
same,GI50,[24],3.16 µM
same,TGI,[24],10.1 µM
same,GI50,[25],3.89 µM
same,TGI,[25],13.1 µM
same,GI50,[26],1.8 µM
same,TGI,[26],3.75 µM
same,GI50,[27],2.03 µM
same,TGI,[27],4.04 µM
same,GI50,[28],2.27 µM
same,TGI,[28],6.34 µM
same,GI50,[29],1.96 µM
same,TGI,[29],4.68 µM
same,GI50,[30],1.79 µM
same,TGI,[30],3.64 µM
same,GI50,[31],2.45 µM
same,TGI,[31],6.8 µM
same,GI50,[32],3.12 µM
same,TGI,[32],11.6 µM
same,GI50,[33],1.95 µM
same,TGI,[33],4.14 µM
same,GI50,[34],4.34 µM
same,TGI,[34],20.3 µM
same,GI50,[35],2.35 µM
same,TGI,[35],5.63 µM
same,GI50,[36],2.66 µM
same,TGI,[36],7.2 µM
same,GI50,[37],3.16 µM
same,TGI,[37],12.3 µM
same,GI50,[38],4.89 µM
same,TGI,[38],18.4 µM
same,GI50,[39],1.85 µM
same,TGI,[39],3.52 µM
same,GI50,[40],3.02 µM
same,TGI,[40],11.2 µM
same,GI50,[41],1.42 µM
same,TGI,[41],3.24 µM
same,GI50,[42],7.45 µM
same,TGI,[42],19.9 µM
same,GI50,[43],6.7 µM
same,TGI,[43],19.4 µM
same,GI50,[44],3.56 µM
same,TGI,[44],13.6 µM
same,GI50,[45],2.83 µM
same,TGI,[45],9.74 µM
same,GI50,[46],5.64 µM
same,TGI,[46],18.7 µM
same,GI50,[47],10.7 µM
same,TGI,[47],23.9 µM
same,GI50,[48],2.01 µM
same,TGI,[48],3.63 µM
same,GI50,[49],1.79 µM
same,TGI,[49],3.37 µM
same,GI50,[50],2.34 µM
same,TGI,[50],6.75 µM
same,GI50,[51],1.74 µM
same,TGI,[51],3.2 µM
same,GI50,[52],6.91 µM
same,TGI,[52],20.2 µM
same,GI50,[53],4.11 µM
same,TGI,[53],16 µM
same,GI50,[54],1.85 µM
same,TGI,[54],3.52 µM
same,GI50,[55],2.96 µM
same,TGI,[55],10.2 µM
same,GI50,[56],2.38 µM
same,TGI,[56],5.28 µM
